For one assay, the system named is panel of 290 distinct kinases (321 in the larger panel), excluding mutant variants. Conditions: asterisk: panel of 321 distinct kinases.
Protocol: Competition binding assays used herein were developed, validated and performed as described in Fabian et al., Nature Biotechnology 2005, 23, 329-336. […] The liganded beads were blocked with excess biotin and washed with blocking buffer (SeaBlock (Pierce), 1% BSA, 0.05% Tween 20, 1 mM DTT) to remove unbound ligand and to reduce non-specific binding. […] Test compounds were prepared as 100× stocks in DMSO and rapidly diluted into the aqueous environment. DMSO was added to control assays lacking a test compound. Primary screen interactions were performed in polypropylene 384-well plates in a final volume of 34 μL, while Kd determinations were performed in polystyrene 96-well plates in a final volume of 135 pt. […] The kinase concentration in the eluates was measured by quantitative PCR. Each kinase was tested individually against each compound. Kds were determined using eleven serial threefold dilutions. A selectivity score, which is a quantitative measure of selectivity of a compound against a panel of enzymes, may be calculated for a compound by dividing the number of enzymes for which a compound meets a set criteria, (for example, a binding constant of 100 nM or less), by the total number of enzymes tested. […] (Note, for those compounds tested in a larger kinase panel, as indicated by an asterisk (*) next to the S35 score, the divisor is 321 (i.e. the larger panel contains 321 distinct kinases, excluding mutant variants.)).
Regarding `COCCOc1cc2ncnc(Sc3cccc(NC(=O)Nc4cc(C(F)(F)F)nn4-c4ccc(C)cc4)c3)c2cc1OC` [Ex 243, 1-{3-[6-methoxy-7-(2-methoxyethoxy)quinazolin-4-ylthio]phenyl}-3-[1-p-tolyl-3-(trifluoromethyl)-1H-pyrazol-5-yl]urea], the S35 result is listed as “C * (0.20 < C ≦ 0.40)”.

The assay is the same for the next values; noted with them: asterisk: panel of 321 distinct kinases; fraction of kinases inhibited 65% or greater.
Turning to `COc1cc2ncnc(Sc3cccc(NC(=O)Nc4cc(C(F)(F)F)nn4-c4ccc(C)cc4)c3)c2cc1OC` [Ex 199, 1-[3-(6,7-dimethoxyquinazolin-4-ylthio)phenyl]-3-[1-p-tolyl-3-(trifluoromethyl)-1H-pyrazol-5-yl]urea], the S35 entry was “D* (D > 0.40)”.

Still in this assay, the particulars now being: no asterisk: panel of 290 distinct kinases.
Turning to `COc1cc2ncnc(Oc3cccc(NC(=O)Nc4cc(C(C)(C)C#N)nn4-c4ccccc4)c3)c2cc1OC` [Ex 308, 1-(3-(2-cyanopropan-2-yl)-1-phenyl-1H-pyrazol-5-yl)-3-(3-(6,7-dimethoxyquinazolin-4-yloxy)phenyl)urea], the S35 entry is “D (D > 0.40)”.

Turning to `COc1cc2ncnc(Oc3cccc(NC(=O)Nc4cc(C(C)(C)C)nn4-c4cccnc4C)c3)c2cc1OC` [Ex 305, 1-(3-tert-butyl-1-(2-methylpyridin-3-yl)-1H-pyrazol-5-yl)-3-(3-(6,7-dimethoxyquinazolin-4-yloxy)phenyl)urea], the S35 entry is reported as “D (D > 0.40)”.

Consider `COc1cc2ncnc(Oc3cccc(NC(=O)Nc4cc(C(C)(F)F)nn4-c4ccccc4)c3)c2cc1OC` [Ex 318, 1-(3-(1,1-difluoroethyl)-1-phenyl-1H-pyrazol-5-yl)-3-(3-(6,7-dimethoxyquinazolin-4-yloxy)phenyl)urea], for which the S35 entry is listed as “C (0.20 < C ≦ 0.40)”.

Consider `COc1cc2ncnc(Oc3cccc(NC(=O)Nc4cc(C(C)(C)C(F)(F)F)nn4-c4ccccc4)c3)c2cc1OC` [Ex 306, 1-(3-(6,7-dimethoxyquinazolin-4-yloxy)phenyl)-3-(1-phenyl-3-(1,1,1-trifluoro-2-methylpropan-2-yl)-1H-pyrazol-5-yl)urea], for which the S35 result is given as “D (D > 0.40)”.

For the compound `COc1cc2ncnc(Oc3cccc(NC(=O)Nc4cc(C5CCC5)nn4-c4ccccc4)c3)c2cc1OC` [Ex 355, 1-(3-cyclobutyl-1-phenyl-1H-pyrazol-5-yl)-3-(3-(6,7-dimethoxyquinazolin-4-yloxy)phenyl)urea], the S35 entry is “C (0.20 < C ≦ 0.40)”.

With `COc1cc2ncnc(Oc3cccc(NC(=O)Nc4cc(C5CC5)nn4-c4ccccc4)c3)c2cc1OC` [Ex 353, 1-(3-cyclopropyl-1-phenyl-1H-pyrazol-5-yl)-3-(3-(6,7-dimethoxyquinazolin-4-yloxy)phenyl)urea], the S35 result is “C (0.20 < C ≦ 0.40)”.

As to `COc1cc2ncnc(Sc3cccc(NC(=O)Nc4cc(C5CC5)nn4-c4ccccc4)c3)c2cc1OC` [Ex 354, 1-(3-cyclopropyl-1-phenyl-1H-pyrazol-5-yl)-3-(3-(6,7-dimethoxyquinazolin-4-ylthio)phenyl)urea], the S35 result is on record as “C (0.20 < C ≦ 0.40)”.

On to `COc1cc2ncnc(Oc3cccc(NC(=O)Nc4cc(C(C)(C)C)nn4C(C)C)c3)c2cc1OC` [Ex 334, 1-(3-tert-butyl-1-isopropyl-1H-pyrazol-5-yl)-3-(3-(6,7-dimethoxyquinazolin-4-yloxy)phenyl)urea], for which the S35 result is given as “C (0.20 < C ≦ 0.40)”.

On to `COc1cc2ncnc(Oc3cccc(NC(=O)Nc4cc(C(C)(C)C)nn4-c4ccccn4)c3)c2cc1OC` [Ex 344, 1-(3-tert-Butyl-1-(pyridin-2-yl)-1H-pyrazol-5-yl)-3-(3-(6,7-dimethoxyquinazolin-4-yloxy)phenyl)urea], for which the S35 entry is given as “C (0.20 < C ≦ 0.40)”.

For the compound `COc1cc2ncnc(Oc3cccc(NC(=O)Nc4cc(C(C)(C)C)nn4C4CCCCC4)c3)c2cc1OC` [Ex 330, 1-(3-tert-butyl-1-cyclohexyl-1H-pyrazol-5-yl)-3-(3-(6,7-dimethoxyquinazolin-4-yloxy)phenyl)urea], the S35 result is recorded as “C (0.20 < C ≦ 0.40)”.

On to `CCc1cc(NC(=O)Nc2cccc(Oc3ncnc4cc(OC)c(OC)cc34)c2)n(-c2ccccc2)n1` [Ex 352, 1-(3-(6,7-dimethoxyquinazolin-4-yloxy)phenyl)-3-(3-ethyl-1-phenyl-1H-pyrazol-5-yl)urea], for which the S35 result is on record as “C (0.20 < C ≦ 0.40)”.

Consider `COc1cc2ncnc(Sc3cccc(NC(=O)Nc4cc(C(C)(C)C)nn4-c4cncc(F)c4)c3)c2cc1OC` [Ex 327, 1-(3-tert-butyl-1-(5-fluoropyridin-3-yl)-1H-pyrazol-5-yl)-3-(3-(6,7-dimethoxyquinazolin-4-ylthio)phenyl)urea], for which the S35 entry is reported as “D (D > 0.40)”.

In the case of `COc1cc2ncnc(Oc3cccc(NC(=O)Nc4cc(C(C)(C)C)nn4-c4ccc(C)nc4)c3)c2cc1OC` [Ex 312, 1-(3-tert-butyl-1-(6-methylpyridin-3-yl)-1H-pyrazol-5-yl)-3-(3-(6,7-dimethoxyquinazolin-4-yloxy)phenyl)urea], the S35 result is reported as “D (D > 0.40)”.

`COc1cc2ncnc(Oc3cccc(NC(=O)Nc4cc(C(F)(F)F)nn4-c4cccc(C)c4)c3)c2cc1OC` [Ex 338, 1-(3-(6,7-dimethoxyquinazolin-4-yloxy)phenyl)-3-(1-m-tolyl-3-(trifluoromethyl)-1H-pyrazol-5-yl)urea]: the S35 result is listed as “C (0.20 < C ≦ 0.40)”.

Turning to `COc1cc2ncnc(Oc3cccc(NC(=O)Nc4cc(C(C)(F)F)nn4-c4cncc(F)c4)c3)c2cc1OC` [Ex 316, 1-(3-(1,1-difluoroethyl)-1-(5-fluoropyridin-3-yl)-1H-pyrazol-5-yl)-3-(3-(6,7-dimethoxyquinazolin-4-yloxy)phenyl)urea], the S35 entry was “C (0.20 < C ≦ 0.40)”.

For the compound `COc1cc2ncnc(Sc3cccc(NC(=O)Nc4cc(C(C)(C)C)nn4-c4ccncc4)c3)c2cc1OC` [Ex 337, 1-(3-tert-butyl-1-(pyridin-4-yl)-1H-pyrazol-5-yl)-3-(3-(6,7-dimethoxyquinazolin-4-ylthio)phenyl)urea], the S35 entry is listed as “D (D > 0.40)”.

Turning to `COc1cc2ncnc(Sc3cccc(NC(=O)Nc4cc(C(F)(F)F)nn4-c4cccc(C)c4)c3)c2cc1OC` [Ex 339, 1-(3-(6,7-dimethoxyquinazolin-4-ylthio)phenyl)-3-(1-m-tolyl-3-(trifluoromethyl)-1H-pyrazol-5-yl)urea], the S35 result is given as “C (0.20 < C ≦ 0.40)”.

Consider `COc1cc2ncnc(Sc3cccc(NC(=O)Nc4cc(C(C)(F)F)nn4-c4ccccc4)c3)c2cc1OC` [Ex 319, 1-(3-(1,1-difluoroethyl)-1-phenyl-1H-pyrazol-5-yl)-3-(3-(6,7-dimethoxyquinazolin-4-ylthio)phenyl)urea], for which the S35 entry is “C (0.20 < C ≦ 0.40)”.

For the compound `COc1cc2ncnc(Oc3cccc(NC(=O)Nc4cc(C(C)(C)CO)no4)c3)c2cc1OC` [Ex 255, 1-(3-(6,7-dimethoxyquinazolin-4-yloxy)phenyl)-3-(3-(1-hydroxy-2-methylpropan-2-yl)isoxazol-5-yl)urea], the S35 result is listed as “C (0.20 < C ≦ 0.40)”.

Take `COc1cc2ncnc(Oc3cccc(NC(=O)Nc4cc(C(C)(C)C)nn4-c4ccnc(C)c4)c3)c2cc1OC` [Ex 320, 1-(3-tert-butyl-1-(2-methylpyridin-4-yl)-1H-pyrazol-5-yl)-3-(3-(6,7-dimethoxyquinazolin-4-yloxy)phenyl)urea]: the S35 entry is listed as “D (D > 0.40)”.

In the case of `COc1cc2ncnc(Oc3cccc(NC(=O)Nc4cc(C(C)(C)C)nn4-c4ccccc4C)c3)c2cc1OC` [Ex 342, 1-(3-tert-butyl-1-o-tolyl-1H-pyrazol-5-yl)-3-(3-(6,7-dimethoxyquinazolin-4-yloxy)phenyl)urea], the S35 entry was “D (D > 0.40)”.

`COc1cc2ncnc(Sc3cccc(NC(=O)Nc4cc(C(C)(C)C)nn4CC(C)C)c3)c2cc1OC` [Ex 333, 1-(3-tert-butyl-1-isobutyl-1H-pyrazol-5-yl)-3-(3-(6,7-dimethoxyquinazolin-4-ylthio)phenyl)urea]: the S35 entry is “C (0.20 < C ≦ 0.40)”.

Consider `COc1cc2ncnc(Oc3cccc(NC(=O)Nc4cc(C(C)(C)C)nn4-c4cccnc4)c3)c2cc1OC` [Ex 322, 1-(3-tert-butyl-1-(pyridin-3-yl)-1H-pyrazol-5-yl)-3-(3-(6,7-dimethoxyquinazolin-4-yloxy)phenyl)urea], for which the S35 result is listed as “D (D > 0.40)”.

For the compound `COc1cc2ncnc(Sc3cccc(NC(=O)Nc4cc(C(C)(C)C)nn4C4CCCCC4)c3)c2cc1OC` [Ex 331, 1-(3-tert-butyl-1-cyclohexyl-1H-pyrazol-5-yl)-3-(3-(6,7-dimethoxyquinazolin-4-ylthio)phenyl)urea], the S35 result is on record as “B (0.10 < B ≦ 0.20)”.

On to `COc1cc2ncnc(Oc3cccc(NC(=O)Nc4cc(C(C)(C)C)nn4-c4ccc(C#N)cc4)c3)c2cc1OC` [Ex 328, 1-(3-tert-butyl-1-(4-cyanophenyl)-1H-pyrazol-5-yl)-3-(3-(6,7-dimethoxyquinazolin-4-yloxy)phenyl)urea], for which the S35 entry is given as “D (D > 0.40)”.

As for `COc1cc2ncnc(Oc3cccc(NC(=O)Nc4cc(C(C)(C)C)nn4-c4ccccc4Cl)c3)c2cc1OC` [Ex 340, 1-(3-tert-butyl-1-(2-chlorophenyl)-1H-pyrazol-5-yl)-3-(3-(6,7-dimethoxyquinazolin-4-yloxy)phenyl)urea], the S35 entry is given as “D (D > 0.40)”.

With `CCn1nc(C(C)(C)C)cc1NC(=O)Nc1cccc(Sc2ncnc3cc(OC)c(OC)cc23)c1` [Ex 321, 1-(3-tert-butyl-1-ethyl-1H-pyrazol-5-yl)-3-(3-(6,7-dimethoxyquinazolin-4-ylthio)phenyl)urea], the S35 result is reported as “C (0.20 < C ≦ 0.40)”.

In the case of `COc1cc2ncnc(Sc3cccc(NC(=O)Nc4cc(C(C)(C)C)nn4-c4ccc(C#N)cc4)c3)c2cc1OC` [Ex 329, 1-(3-tert-butyl-1-(4-cyanophenyl)-1H-pyrazol-5-yl)-3-(3-(6,7-dimethoxyquinazolin-4-ylthio)phenyl)urea], the S35 result is reported as “D (D > 0.40)”.

With `COc1cc2ncnc(Oc3cccc(NC(=O)Nc4cc(C(C)(C)C)nn4-c4ccc(=O)[nH]c4)c3)c2cc1OC` [Ex 317, 1-(3-tert-butyl-1-(6-oxo-1,6-dihydropyridin-3-yl)-1H-pyrazol-5-yl)-3-(3-(6,7-dimethoxyquinazolin-4-yloxy)phenyl)urea], the S35 entry is “D (D > 0.40)”.

Still in this assay, the particulars now being: no asterisk: panel of 290 distinct kinases; fraction of kinases inhibited 65% or greater.
For the compound `COc1cc(OC2CCOCC2)c2c(Sc3cccc(NC(=O)Nc4cc(C(C)(C)C)on4)c3)ncnc2c1`, the S35 result is given as “C (0.20 < C ≦ 0.40)”.

Values taken from patent US9320739B2 (AMBIT BIOSCIENCES CORPORATION, priority 2008, dated 2016).
